This passage reports IC50 results from US10526327B2, “Histone demethylase inhibitors” (CELGENE QUANTICEL RESEARCH, INC., priority 2013, dated 2020).

A value given as a limit tells only on which side of the number the result lay.

This assay has as its target T1, Jarid1A (Homo sapiens, UniProt P29375).
T1 construct: purchased BPS Bioscience 50110
T1 sequence (P29375 1-1090): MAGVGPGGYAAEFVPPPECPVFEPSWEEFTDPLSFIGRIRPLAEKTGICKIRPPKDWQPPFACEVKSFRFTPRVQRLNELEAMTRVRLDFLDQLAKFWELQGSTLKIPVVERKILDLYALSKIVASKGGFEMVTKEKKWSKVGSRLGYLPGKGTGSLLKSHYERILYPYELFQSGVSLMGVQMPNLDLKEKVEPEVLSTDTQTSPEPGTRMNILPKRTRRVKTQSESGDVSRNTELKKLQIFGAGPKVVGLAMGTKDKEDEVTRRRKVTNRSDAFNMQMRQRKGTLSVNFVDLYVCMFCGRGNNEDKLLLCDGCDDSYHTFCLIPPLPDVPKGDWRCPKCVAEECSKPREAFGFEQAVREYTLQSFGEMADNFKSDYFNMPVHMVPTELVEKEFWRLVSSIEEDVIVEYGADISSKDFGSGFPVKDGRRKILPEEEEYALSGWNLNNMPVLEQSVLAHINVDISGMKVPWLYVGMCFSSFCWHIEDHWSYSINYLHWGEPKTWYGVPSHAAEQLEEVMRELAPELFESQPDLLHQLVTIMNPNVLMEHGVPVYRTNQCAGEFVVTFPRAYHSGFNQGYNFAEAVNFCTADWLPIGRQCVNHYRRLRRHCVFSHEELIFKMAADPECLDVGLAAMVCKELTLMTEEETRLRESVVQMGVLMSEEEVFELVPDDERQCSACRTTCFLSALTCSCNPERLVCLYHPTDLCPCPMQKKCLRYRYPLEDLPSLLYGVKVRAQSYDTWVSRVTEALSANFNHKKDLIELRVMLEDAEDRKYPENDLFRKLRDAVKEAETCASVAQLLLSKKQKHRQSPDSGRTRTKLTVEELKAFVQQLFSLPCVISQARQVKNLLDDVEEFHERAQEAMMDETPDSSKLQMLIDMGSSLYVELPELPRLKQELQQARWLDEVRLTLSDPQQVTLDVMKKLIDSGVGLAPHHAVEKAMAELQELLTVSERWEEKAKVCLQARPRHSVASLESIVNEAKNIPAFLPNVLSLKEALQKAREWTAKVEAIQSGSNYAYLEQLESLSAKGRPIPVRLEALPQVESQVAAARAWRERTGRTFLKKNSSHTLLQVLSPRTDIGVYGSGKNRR
In words: Jarid1A in vitro enzyme inhibition assay (TR-FRET). Format: biochemical. A digest of the protocol:
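Demethylation of 300 nM biotin-H3K4me3 peptide by 1 nM baculovirus-expressed Jarid1A (aa 1–1090) with 2 μM α-ketoglutarate, Fe(II) and ascorbate, pH 7.3, 30 min at room temperature. Stopped with EDTA; H3K4me1-2 product detected by TR-FRET (Eu anti-H3K4me1-2/streptavidin-APC). IC50 fitted from 665/615 ratio over 11-point dilutions.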
`Oc1nc(OC(c2ccccc2)C(F)(F)F)nc2cnccc12` (centres unmarked) [Example 176, 2-(2,2,2-trifluoro-1-phenylethoxy)pyrido[3,4-d]pyrimidin-4-ol] had a 50% inhibitory concentration (IC50) of 1000 to 10000 nM.
Regarding `Cn1cnc(-c2nccc3c(O)nc(Oc4ccc(Cl)c(Cl)c4)nc23)c1` [Example 113, 2-(3,4-dichlorophenoxy)-8-(1-methyl-1H-imidazol-4-yl)pyrido[3,4-d]pyrimidin-4-ol], the IC50 was not above 100 nM.
In turn, `CC(=O)N1CCC[C@@H](n2cc(Oc3nc(O)c4ccncc4n3)cn2)C1` [Example 153, 1-[(3R)-3-[4-({4-hydroxypyrido[3,4-d]pyrimidin-2-yl}oxy)-1H-pyrazol-1-yl]piperidin-1-yl]ethan-1-one] came in with an IC50 not above 100 nM.
The compound `CC(=O)N1CC[C@@H](n2cc(Oc3nc(O)c4ccncc4n3)cn2)C1` [Example 129, 1-[(3R)-3-[4-({4-hydroxypyrido[3,4-d]pyrimidin-2-yl}oxy)-1H-pyrazol-1-yl]pyrrolidin-1-yl]ethan-1-one] registered a concentration for half-maximal inhibition (IC50) not above 100 nM.
With `O=C(c1ccccc1)N1CCC[C@@H](n2cc(Oc3nc(O)c4ccncc4n3)cn2)C1` [Example 157, 2-({1-[(3R)-1-benzoylpiperidin-3-yl]-1H-pyrazol-4-yl}oxy)pyrido[3,4-d]pyrimidin-4-ol], the IC50 was not above 100 nM.
`O=S(=O)(c1ccccc1)N1CCC[C@H](n2cc(Oc3nc(O)c4ccncc4n3)cn2)C1` [Example 163, 2-({1-[(3S)-1-(benzenesulfonyl)piperidin-3-yl]-1H-pyrazol-4-yl}oxy)pyrido[3,4-d]pyrimidin-4-ol] had an IC50 not above 100 nM.
`CC(COc1nc(O)c2ccncc2n1)c1ccccc1` (centres unmarked) [Example 17, 2-(2-phenylpropoxy)pyrido[3,4-d]pyrimidin-4-ol]: the half-maximal inhibitory concentration (IC50) lay in the range of 100 to 1000 nM.
As to `CN(C)CCCOc1nc(O)c2ccncc2n1` [Example 21, 2-[3-(dimethylamino)propoxy]pyrido[3,4-d]pyrimidin-4-ol], the half-inhibitory concentration (IC50) lay in the range of 100 to 1000 nM.
Compound `Oc1nc(Oc2cnn([C@H]3CCNC3)c2)nc2cnccc12` [Example 135, 2-({1-[(3S)-pyrrolidin-3-yl]-1H-pyrazol-4-yl}oxy)pyrido[3,4-d]pyrimidin-4-ol] had an IC50 of 100 to 1000 nM.
Regarding `Oc1nc(Oc2cnn([C@@H]3CCNC3)c2)nc2cnccc12` [Example 125, 2-({1-[(3R)-pyrrolidin-3-yl]-1H-pyrazol-4-yl}oxy)pyrido[3,4-d]pyrimidin-4-ol], the IC50 is not above 100 nM.
In the case of `C[C@@H](c1ccccc1)n1cc(Oc2nc(O)c3ccncc3n2)cn1` [Example 118, 2-({1-[(1S)-1-phenylethyl]-1H-pyrazol-4-yl}oxypyrido) [3,4-d]pyrimidin-4-ol], the IC50 is not above 100 nM.
For the compound `Oc1nc(Oc2cnn(C(c3ccccc3)C3CC3)c2)nc2cnccc12` (centres unmarked) [Example 116, 2-({1-[cyclopropyl(phenyl)methyl]-1H-pyrazol-4-yl}oxy)pyrido[3,4-d]pyrimidin-4-ol], the concentration for half-maximal inhibition (IC50) was not above 100 nM.
For `Oc1nc(Oc2cnn(CCN3CCOCC3)c2)nc2cnccc12` [Example 124, 2-({1-[2-(morpholin-4-yl)ethyl]-1H-pyrazol-4-yl}oxy)pyrido[3,4-d]pyrimidin-4-ol], the IC50 was not above 100 nM.
`Oc1nc(Oc2ccc(Cl)c(Cl)c2)nc2cnccc12` [Example 114, 2-(3,4-dichlorophenoxy)pyrido[3,4-d]pyrimidin-4-ol] had an IC50 of 100 to 1000 nM.
Turning to `Oc1nc(OCCC(F)(F)F)nc2cnccc12` [Example 13, 2-(3,3,3-trifluoropropoxy)pyrido[3,4-d]pyrimidin-4-ol], the half-maximal inhibitory concentration (IC50) was not above 100 nM.
`Oc1nc(Oc2cnn([C@H]3CCCN(Cc4ccccc4)C3)c2)nc2cnccc12` [Example 168, 2-({1-[(3S)-1-benzylpiperidin-3-yl]-1H-pyrazol-4-yl}oxy)pyrido[3,4-d]pyrimidin-4-ol] returned an IC50 not above 100 nM.
Take `CCS(=O)(=O)N1CC[C@@H](n2cc(Oc3nc(O)c4ccncc4n3)cn2)C1` [Example 126, 2-({1-[(3R)-1-(ethanesulfonyl)pyrrolidin-3-yl]-1H-pyrazol-4-yl}oxy)pyrido[3,4-d]pyrimidin-4-ol]: the half-inhibitory concentration (IC50) was not above 100 nM.
For the compound `CCC(Oc1nc(O)c2ccnc(-c3cn(C)cn3)c2n1)C(F)(F)F` (centres unmarked) [Example 110, 8-(1-methyl-1H-imidazol-4-yl)-2-[(1,1,1-trifluorobutan-2-yl)oxy]pyrido[3,4-d]pyrimidin-4-ol], the IC50 fell in the range of 100 to 1000 nM.
In turn, `O=S(=O)(c1ccccc1)N1CCC[C@@H](n2cc(Oc3nc(O)c4ccncc4n3)cn2)C1` [Example 152, 2-({1-[(3R)-1-(benzenesulfonyl)piperidin-3-yl]-1H-pyrazol-4-yl}oxy)pyrido[3,4-d]pyrimidin-4-ol] showed an IC50 not above 100 nM.
`Oc1nc(Oc2cnn([C@@H]3CCCN(c4ccc(F)cc4)C3)c2)nc2cnccc12` [Example 159, 2-({1-[(3R)-1-(4-fluorophenyl)piperidin-3-yl]-1H-pyrazol-4-yl}oxy)pyrido[3,4-d]pyrimidin-4-ol] displayed a concentration for half-maximal inhibition (IC50) not above 100 nM.
For the compound `Oc1nc(Oc2cnn([C@@H]3CCN(Cc4ccccc4)C3)c2)nc2cnccc12` [Example 133, 2-({1-[(3R)-1-benzylpyrrolidin-3-yl]-1H-pyrazol-4-yl}oxy)pyrido[3,4-d]pyrimidin-4-ol], the half-inhibitory concentration (IC50) was not above 100 nM.
To `N#CCC(=O)N1CCC[C@H](n2cc(Oc3nc(O)c4ccncc4n3)cn2)C1` [Example 166, 3-[(3S)-3-[4-({4-hydroxypyrido[3,4-d]pyrimidin-2-yl}oxy)-1H-pyrazol-1-yl]piperidin-1-yl]-3-oxopropanenitrile] belongs not above 100 nM.
With `O=C(CO)N1CC[C@H](n2cc(Oc3nc(O)c4ccncc4n3)cn2)C1` [Example 155, 2-hydroxy-1-[(3S)-3-[4-({4-hydroxypyrido[3,4-d]pyrimidin-2-yl}oxy)-1H-pyrazol-1-yl]pyrrolidin-1-yl]ethan-1-one], the half-inhibitory concentration (IC50) was not above 100 nM.
As for `N#CCC(=O)N1CCC[C@@H](n2cc(Oc3nc(O)c4ccncc4n3)cn2)C1` [Example 154, 3-[(3R)-3-[4-({4-hydroxypyrido[3,4-d]pyrimidin-2-yl}oxy)-1H-pyrazol-1-yl]piperidin-1-yl]-3-oxopropanenitrile], the 50% inhibitory concentration (IC50) was not above 100 nM.
Compound `CNCC(=O)N1CC[C@H](n2cc(Oc3nc(O)c4ccncc4n3)cn2)C1` [Example 144, 1-[(3S)-3-[4-({4-hydroxypyrido[3,4-d]pyrimidin-2-yl}oxy)-1H-pyrazol-1-yl]pyrrolidin-1-yl]-2-(methylamino)ethan-1-one] yielded an IC50 not above 100 nM.
In the case of `O=C(C1CC1)N1CCC[C@@H](n2cc(Oc3nc(O)c4ccncc4n3)cn2)C1` [Example 156, 2-({1-[(3R)-1-cyclopropanecarbonylpiperidin-3-yl]-1H-pyrazol-4-yl}oxy)pyrido[3,4-d]pyrimidin-4-ol], the half-maximal inhibitory concentration (IC50) is not above 100 nM.
In turn, `Oc1nc(Oc2cnn([C@H]3CCN(c4ccc(F)cc4)C3)c2)nc2cnccc12` [Example 146, 2-({1-[(3S)-1-(4-fluorophenyl)pyrrolidin-3-yl]-1H-pyrazol-4-yl}oxy)pyrido[3,4-d]pyrimidin-4-ol] yielded an IC50 not above 100 nM.
With `Oc1nc(OCc2c(Cl)cccc2Cl)nc2cnccc12` [Example 172, 2-[(2,6-dichlorophenyl)methoxy]pyrido[3,4-d]pyrimidin-4-ol], the half-inhibitory concentration (IC50) was 1000 to 10000 nM.
`Oc1nc(Oc2cnn([C@H]3CCN(c4ccc(Cl)cc4)C3)c2)nc2cnccc12` [Example 148, 2-({1-[(3S)-1-(4-chlorophenyl)pyrrolidin-3-yl]-1H-pyrazol-4-yl}oxy)pyrido[3,4-d]pyrimidin-4-ol] showed a concentration for half-maximal inhibition (IC50) not above 100 nM.
In the case of `Oc1nc(OCCc2ccc(Cl)cc2)nc2cnccc12` [Example 174, 2-[2-(4-chlorophenyl)ethoxy]pyrido[3,4-d]pyrimidin-4-ol] it was not above 100 nM; in that of `O=S(=O)(C1CC1)N1CCCC(n2cc(Oc3nc(O)c4ccncc4n3)cn2)C1` (stereo in doubt) [Example 151, 2-({1-[(3S)-1-(cyclopropanesulfonyl)piperidin-3-yl]-1H-pyrazol-4-yl}oxy)pyrido[3,4-d]pyrimidin-4-ol], not above 100 nM.
Regarding `Oc1nc(OCc2ccc(C(F)(F)F)cc2)nc2cnccc12` [Example 170, 2-{[4-(trifluoromethyl)phenyl]methoxy}pyrido[3,4-d]pyrimidin-4-ol], the 50% inhibitory concentration (IC50) was 1000 to 10000 nM.
